# Results: a melting point compilation (Tetko et al.)
row,Structure (SMILES),melting point
1,CCCCOc1ccc(C=O)cc1OCC,38 to 40 °C
2,Nc1c(-c2ccncc2)nc2ccccn12,211 to 213 °C
3,CCc1ccccc1NC(=O)CCl,106 to 108 °C
4,O=C(NC1CCCNC1)c1ccccc1 (stereo unspecified),130 to 132 °C
5,c1ccc(Nc2nnns2)cc1,144 to 146 °C
6,NS(=O)(=O)c1cc(C(=O)O)co1,176 to 178 °C
7,CC(NC(=S)NN)C1CC1 (stereo unspecified),68 to 70 °C
8,CC(Cl)C(=O)N(CCC#N)c1ccccc1 (stereo unspecified),74 to 76 °C
9,O=C(O)C(Cc1ccsc1)C(=O)O,108 to 110 °C
10,O=C(CCc1ccccc1)c1ccccc1,69 to 71 °C
11,O=[N+]([O-])c1cc(S(=O)(=O)N2CCCC2)ccc1Cl,96 to 100 °C
12,NS(=O)(=O)C1CCNC1 (stereo unspecified),115 to 117 °C
13,CCCC(=O)N1CCCC(C(=O)O)C1 (stereo unspecified),96 to 98 °C
14,Cc1cc(C(C#N)c2ccc(Cl)cc2)c(Cl)cc1N (stereo unspecified),147 to 153 °C
15,CCC(C)(NC(=O)c1ccccc1)C(N)=S (stereo unspecified),162 to 164 °C
16,CN(C(=O)c1cccc(N)c1)c1ccccc1,144 to 146 °C
17,C/C(=N/O)c1ccc2c(c1)CCO2,122 to 124 °C
18,O=C(O)c1ccc(S(=O)(=O)Nc2ccccc2Cl)cc1,111 to 113 °C
19,O=C(CCl)Nc1cc(S(=O)(=O)N2CCOCC2)ccc1Cl,131 to 133 °C
20,Fc1cc2nc(S)[nH]c2cc1F,291 to 293 °C
21,N#Cc1cc(C(N)=O)c[nH]1,245 to 247 °C
22,N#Cc1nc(-c2ccco2)oc1N1CCNCC1,129 to 131 °C

row,Structure (SMILES),melting point
1,O=C(O)C(F)(F)c1cccc(Cl)c1,75 to 77 °C
2,COc1ccc(Cl)c(S(N)(=O)=O)c1,129 to 131 °C
3,Cc1ccnc(NN)c1,74 to 76 °C
4,CN1CCN(c2ccnc(C#N)c2)CC1,114 to 116 °C
5,COC(=O)c1ccc(OCC#N)cc1,95 to 97 °C
6,O=C(NCCO)c1ccc(O)cc1,155 to 157 °C
7,c1cc(-c2nnco2)ccn1,119 to 121 °C
8,O=C(Nc1cc(Cl)ccc1C(=O)O)c1cccs1,267 to 269 °C
9,N#Cc1c(F)cccc1Sc1ccccc1,108 to 110 °C
10,N#Cc1ccc(S(=O)(=O)NC2CC2)cc1,99 to 101 °C
11,O=C(O)c1cccc(S(=O)(=O)NCC2CCCO2)c1 (stereo unspecified),157 to 161 °C
12,CCCNC(=O)c1ccc(Cl)nc1,108 to 110 °C
13,Nc1ccc(S(=O)C(F)F)cc1 (stereo unspecified),83 to 85 °C
14,NC(=O)C1CCCCS1 (stereo unspecified),164 to 166 °C
15,Cn1c(S)nnc1C1CC1,180 to 182 °C
16,O=S(=O)(F)c1ccc2[nH]ncc2c1,175 to 177 °C
17,CC(C)(C)OC(=O)CNC(=O)CCl,66 to 68 °C
18,CC(C)(C#N)Nc1ccccc1,89 to 91 °C
19,Nc1cccc(C(=O)Nc2ccc(Br)cn2)c1,153 to 155 °C
20,O=C(NCc1cccc(Br)c1)NC1(C(=O)O)CCCC1,170 to 172 °C
21,CCOc1ccc(S(=O)(=O)Cl)cc1-c1ccccc1,78 to 80 °C
22,Nc1nc(CO)n[nH]1,193 to 195 °C

row,Structure (SMILES),melting point
1,O=C(CCl)c1nnc(-c2ccccc2)o1,123 to 125 °C
2,CC(=O)NCc1ccc(S(=O)(=O)Cl)s1,80 to 82 °C
3,OCc1cnn(-c2ccccc2)c1,63 to 67 °C
4,COc1ccc(C2CC2C(=O)O)cc1 (stereo unspecified),109 to 111 °C
5,CCNS(=O)(=O)c1ccc(C(=O)O)cc1,219 to 221 °C
6,O=C(O)C1CC2COCC(C1)C2=O (stereo unspecified),196 to 198 °C
7,CC1CSc2ccc(Cl)cc2NC1=O (stereo unspecified),222 to 224 °C
8,COc1c([N+](=O)[O-])ccc(C=O)c1OC(F)F,95 to 97 °C
9,Nc1ccc(Cc2nnc3ccccn23)cc1,207 to 209 °C
10,N#Cc1cc(N)ccc1N1CCC(O)CC1,137 to 139 °C
11,c1ccc(OC2CCNCC2)cc1,34 to 36 °C
12,O=C1Nc2c(I)cccc2C1=O,200 to 202 °C
13,Sc1n[nH]c(-c2ccccn2)n1,279 to 281 °C
14,COC(=O)c1cc(N)cc(C(F)(F)F)c1,78 to 80 °C
15,O=C(O)c1cc(Oc2ccccc2)ccn1,179 to 181 °C
16,CN(c1ccccc1N)S(C)(=O)=O,138 to 140 °C
17,CCCCn1c(N)c(NCc2ccccc2OC)c(=O)[nH]c1=O,198 to 200 °C
18,NC(=O)NCCCC(=O)O,171 to 173 °C
19,Nc1ccc2c(c1)S(=O)(=O)NC2=O,279 to 281 °C
20,COc1cc(C=O)ccc1SC,45 to 47 °C
21,Nc1cc(C(F)(F)F)ccc1-n1cncn1,119 to 121 °C
22,S=C1CCCCN1,92 to 94 °C

row,Structure (SMILES),melting point
1,Sc1nnc2n(-c3ccccc3)c(-c3ccccc3)nn12,237 to 239 °C
2,Cn1nnc2cc(CCl)ccc21,83 to 85 °C
3,NC(=NO)c1ccc(Br)cc1,153 to 155 °C
4,O=C1CC(c2ccccc2)=NN1c1ccccc1,138 to 140 °C
5,CNc1ccc(N)c(C(F)(F)F)c1,86 to 88 °C
6,C#CCOc1ncccc1C(=O)O,120 to 122 °C
7,O=C(O)C1(c2cccc(C(F)(F)F)c2)CCCC1,111 to 113 °C
8,COCC(C)C(N)=S (stereo unspecified),42 to 44 °C
9,COC(=O)CCCCCNC(N)=S,84 to 86 °C
10,N#Cc1cc2c([nH]c1=O)CCC2,219 to 221 °C
11,CC(C)=CC(=O)Nc1scc(-c2ccccc2)c1C(=O)O,202 to 204 °C
12,CC(=Cc1ccc(F)cc1)C(=O)O,150 to 152 °C
13,Cc1nn(Cc2cccc(Br)c2)c(C)c1C(=O)O,174 to 176 °C
14,CC(C)c1ccccc1Oc1ccccc1C(=O)O,133 to 135 °C
15,Nc1nc2c3c(ccc2s1)CCCC3,122 to 124 °C
16,O=C(NC(C(=O)O)c1ccccc1)c1cccs1 (stereo unspecified),185 to 187 °C
17,Brc1csc(Br)n1,80 to 84 °C
18,Cn1ccnc(N)c1=O,162 to 164 °C
19,Nc1cc(C(F)(F)F)ccc1O,115 to 117 °C
20,CC(C)(C#N)Cc1ccccc1,47 to 49 °C

# Other lines, results leading:
row,melting point,Structure (SMILES)
1,124 to 126 °C,CCOC(=O)/C(C#N)=C\Nc1ccccc1CC
2,275 to 277 °C,Cc1ccc(C(=O)O)cc1S(N)(=O)=O
3,104 to 106 °C,Cc1cccc([N+](=O)[O-])c1C(=O)n1ccnc1
4,108 to 110 °C,O=C(O)CCCc1nc(-c2ccc(Cl)cc2)no1
5,193 to 195 °C,Nc1ccc2c(C(=O)O)c[nH]c2c1
6,160 to 162 °C,O=C(O)c1cc2ccc(OC(F)(F)F)cc2[nH]1
7,249 to 251 °C,Cc1c(C(=O)O)cnn1C1CCS(=O)(=O)C1 (stereo unspecified)
8,170 to 172 °C,CNS(=O)(=O)c1ccc(C)c(C(=O)O)c1
9,199 to 201 °C,Cc1nnc(-c2cccc(CN)c2)[nH]1
10,151 to 153 °C,Cc1cc(C(=O)O)c(C)n1Cc1ccccn1
11,160 to 162 °C,Cc1cc(C(=O)O)c(C)n1-c1cccc(Cl)c1
12,63 to 65 °C,O=C(O)CSCC(=O)Nc1cccc(Br)c1
13,74 to 76 °C,COC(=O)c1ccccc1CCC(=O)O
14,187 to 189 °C,CCNc1ncc(C(=O)O)s1
15,229 to 231 °C,CCn1c(=O)n(CC(=O)O)c2ccccc21
16,197 to 199 °C,Cc1cc(F)ccc1-n1ccc(C(=O)O)n1
17,286 to 288 °C,N#Cc1cnn(-c2cccc(C(=O)O)c2)c1N
18,148 to 150 °C,Cc1ccc2cc(C=O)c(Cl)nc2c1
19,81 to 83 °C,COc1ccc(SCCC(=O)O)cc1
20,204 to 206 °C,O=C(O)Cc1occc1C(=O)O

row,melting point,Structure (SMILES)
1,177 to 179 °C,CS(=O)Cc1c(C(=O)O)oc2ccccc12 (stereo unspecified)
2,158 to 160 °C,Cc1cccc(N2C(=O)NC(CCC(=O)O)C2=O)c1 (stereo unspecified)
3,255 to 257 °C,O=C(O)c1c[nH]nc1-c1cccnc1
4,235 to 237 °C,Cc1onc2c(=O)[nH]nc(-c3ccccc3)c12
5,162 to 164 °C,O=C(O)c1nc(C2CC2)n(-c2ccccc2Cl)n1
6,76 to 78 °C,Cc1nc2nc(Br)ccc2o1
7,253 to 255 °C,CNC(=O)c1cncc(C=CC(=O)O)c1
8,87 to 89 °C,COC(=O)c1oc(CO)cc1C
9,231 to 233 °C,Cc1nn(-c2ccc(Br)cc2)c(C)c1C(=O)O
10,60 to 62 °C,COc1cccc(SCC(=O)O)c1
11,249 to 251 °C,Cc1cc(C)nc(-n2nc(C)c(CC(=O)O)c2C)n1
12,279 to 281 °C,CCc1c(C)nc2ccccc2c1O
13,209 to 211 °C,O=C(O)c1cc(-c2ccco2)nc2ccccc12
14,79 to 81 °C,COC(=O)c1ccc(Br)c(C)c1N
15,174 to 176 °C,COc1cc(C(=O)O)ccc1OCc1ccccc1
16,135 to 137 °C,Cc1cc(C)nc(SCc2ccc(C(=O)NN)cc2)n1
17,149 to 151 °C,COc1ccc(S(=O)(=O)Cl)cc1CC(=O)O
18,49 to 51 °C,CC(C)c1ccc(C=CCC(=O)O)cc1
19,246 to 248 °C,CCOC(=O)c1cnn2c3c(cnc12)CCOC3=O
20,197 to 199 °C,COc1cccc(-n2c(S)nc(O)cc2=O)c1

row,melting point,Structure (SMILES)
1,125 to 127 °C,COc1cc(OC)cc(N2CC(C(=O)O)CC2=O)c1 (stereo unspecified)
2,181 to 183 °C,COC(=O)c1cc2ccc(Cl)cc2[nH]1
3,289 to 291 °C,COc1cc2c(c(OC)c1)C(=O)C(=O)N2
4,213 to 215 °C,Cc1cc(O)nc(NN)n1
5,151 to 153 °C,CCOC(=O)c1nnn(-c2cccc([N+](=O)[O-])c2)c1N
6,55 to 57 °C,COc1c(C=O)c(C)nn1C
7,199 to 201 °C,CC(C)(C)Nc1cc(C(=O)O)c(N)cc1F
8,249 to 251 °C,Cn1cnnc1-c1ccc(N)nc1
9,56 to 58 °C,Cc1ccc(C)c(OCCCCC(=O)O)c1
10,159 to 161 °C,O=C(O)CNC(=O)N1CCc2ccccc2C1
11,199 to 201 °C,CC1(C)CCC(C)(C)c2cc(C(=O)O)ccc21
12,135 to 137 °C,CCCc1ncc(C(=O)O)s1
13,261 to 263 °C,O=C(O)c1[nH]nc2cc(OC(F)(F)F)ccc12
14,37 to 39 °C,CCOC(=O)c1cnc2ccccc2c1Cl
15,67 to 69 °C,CCOC(=O)c1csc(-c2ccccn2)n1
16,69 to 71 °C,Cc1nc(CN)oc1-c1ccc(Cl)cc1
17,56 to 58 °C,COc1cc(C)cc2c(C)c(C(C)N)oc12 (stereo unspecified)
18,62 to 64 °C,O=C(O)CSc1ccc(F)c(F)c1
19,302 to 304 °C,Cc1csc(-c2cnc(C)[nH]c2=O)n1
20,209 to 211 °C,CN1C(=O)CCc2cc(C(=O)O)ccc21
